Tested on: PBMCs of ten HLA-A2+ healthy subjects
Experiment: In vitro stimulation of peptide-specific T cells in PBMCs of healthy subjects, IFN-γ release by ELISA
Format: cell-based, human
Settings: PBMCs stimulated 14 days with peptide 20 μg/mL, response to T2 cells pre-loaded with peptide 5 μg/mL
Procedure: Ten HLA-A2+ prostate cancer patients and ten HLA-A2+ healthy subjects were enrolled in this study after written informed consent was obtained. All protocols were approved by the Institutional Review Board (IRB) of Baylor College of Medicine before commencing studies. 20 mL of peripheral blood was obtained from each person, and peripheral blood mononuclear cells (PBMCs) were isolated by density gradient centrifugation using Lymphoprep (Nycomed Pharma AS; Oslo, Norway). The freshly isolated PBMCs were cryopreserved for later use in 1 mL freezing medium containing 90% FCS and 10% dimethyl sulfoxide (DMSO) at −140° C. The expression of HLA-A2 molecules on PBMCs obtained from cancer patients and healthy subjects was verified by flow cytometry with FITC-labeled HLA-A2 mAb BB7.2 (BD Pharmingen, San Diego, Calif., USA).
PBMCs (1×10^5 cells/well) from either healthy subjects or prostate cancer patients were incubated with standard peptide concentrations of 20 μg/mL per peptide in 96-well U-bottom microplates (BD, Franklin Lakes, N.J., USA) in 200 μL of T-cell medium (TCM), consisting of RPMI 1640 (Mediatech, Manassas, Va., USA), 10% human AB serum (Valley Biomedical, Winchester, USA), 50 μM of 2-mercaptoethanol, 100 U/mL of interleukin-2 (IL-2), and 0.1 mM MEM nonessential amino acid solution (Invitrogen, Grand Island, N.Y., USA). Half of the TCM was removed and replaced with fresh TCM containing peptides (20 μg/mL) every 5 days. After 14 days of culture, the cells were harvested and tested for their ability to produce IFN-γ in response to T2 cells (1×10^4 cells/well), which were pre-loaded with either PSGR peptide (5 μg/mL) or a control peptide (an irrelevant HL-A2 binding peptide: NLLTHVESL) as a negative control. After 18 hours of incubation, supernatants were collected, and IFN-γ release was determined by ELISA assay.
Cytokine release was measured by coating 96-well ELISA plates (Thermo Fisher Scientific; Rochester, N.Y., USA) with 1 μg/mL anti-human IFN-γ (Pierce Biotechnology; Rockford, Ill., USA) overnight at 4° C. The plate was washed six times with PBS containing 0.05% Tween-20 (wash solution) to remove unbound coating antibody, and blocked with 1% BSA/PBS at room temperature for 2 hrs. Afterwards, 50 μL supernatant was added to each well and incubated at room temperature for 1 hr, then 50 μL of 0.5 μg/mL biotinylated anti-human IFN-γ (Pierce Biotechnology; Rockford, Ill., USA) was added and plates were incubated for an additional 1 hr at room temperature. After incubation, plates were washed and incubated for 30 min with Poly-HRP-Streptavidin (Thermo Fisher Scientific; Rochester, N.Y., USA) diluted 1:5000 in PBS/1% BSA. Plates were washed and 100 μL of TMB substrate solution (Sigma-Aldrich Co.; St. Louis, Mo., USA) was added per well. The colorimetric reaction was stopped using 2N H2SO4 and plates were read at 450 nm using an ELISA plate reader.
To determine whether PSGR-reactive T cell precursors are present in healthy subjects, we obtained PBMCs from 10 HLA-A2+ healthy donors and stimulated them in vitro with each of the 21 PSGR-derived peptides containing HLA-A2-binding motif (Table 1). After 2 weeks of peptide stimulation, supernatants from peptide-stimulated T cells were analyzed by ELISA assay to detect IFN-γ release in response to T2 cells pulsed with or without corresponding peptides.

| Sequence | concentrations of IFN-γ in the supernatants (healthy subject #1) [pg/mL] | concentrations of IFN-γ in the supernatants (healthy subject #2) [pg/mL] | concentrations of IFN-γ in the supernatants (healthy subject #3) [pg/mL] | concentrations of IFN-γ in the supernatants (healthy subject #4) [pg/mL] | concentrations of IFN-γ in the supernatants (healthy subject #5) [pg/mL] | concentrations of IFN-γ in the supernatants (healthy subject #6) [pg/mL] |
| --- | --- | --- | --- | --- | --- | --- |
| ALMAPLPVFI (PSGR13) | 0 | 0 | 0 | 0 | 0 | 0 |
| CLHQDVMKL [PSGR7] | 0 | 0 | 0 | 0 | 168 | 0 |
| CMLSGIDILI (PSGR17) | 0 | 0 | 0 | 0 | 0 | 0 |
| FIFYVPFIGL (PSGR22) | 289 | 0 | 0 | 0 | 0 | 0 |
| GLEEAQFWLA (PSGR12) | 0 | 139 | 0 | 246 | 0 | 432 |
| HVCAVFIFYV (PSGR11) | 0 | 0 | 0 | 0 | 0 | 0 |
| KLACDDIRV (PSGR2) | 0 | 0 | 455 | 0 | 0 | 0 |
| LLAMAFDRYV (PSGR20) | 0 | 0 | 0 | 0 | 0 | 0 |
| LLILKTVLGL (PSGR15) | 0 | 0 | 456 | 0 | 0 | 0 |
| LLQMFAIHSL (PSGR18) | 176 | 0 | 0 | 0 | 0 | 0 |
| SLHEPMYIFL (PSGR19) | 0 | 0 | 0 | 0 | 195 | 0 |
| SLLISFSYLL (PSGR10) | 917 | 0 | 0 | 0 | 0 | 0 |
| TLPRVTKIGV (PSGR23) | 0 | 0 | 0 | 0 | 0 | 0 |
| VLGNLTIIYI (PSGR21) | 0 | 291 | 0 | 0 | 300 | 377 |
| VLNPIVYGV (PSGR1) | 195 | 0 | 0 | 0 | 0 | 281 |
| YLIAVLGNLT (PSGR16) | 602 | 0 | 0 | 0 | 163 | 0 |
| YLLILKTVL (PSGR5) | 0 | 0 | 0 | 0 | 0 | 0 |
| YVPFIGLSMV (PSGR24) | 0 | 0 | 0 | 0 | 0 | 0 |

From patent publication US10722563B2, “Prostate-specific tumor antigens and uses thereof” (SHENZHEN INNOVATION IMMUNOTECHNOLOGY CO., LTD., priority 2012, dated 2020)
